In ChEMBL document CHEMBL3046635, “Synthesis and Herbicidal Activity of New Pyrazole-4-carboxamide Derivatives” (J Pestic Sci, 2004):
Active and inactive are the calls of the source.

Assays:
Eleocharis acicularis [1] = assay: Pre-emergence herbicidal activity against Eleocharis acicularis at 100 g a.i/ha measured after 14 days; format: functional, organism-based
Oryza sativa [2] = assay: Phytotoxicity against Oryza sativa cv. Koshihikari (rice) at 100 g a.i/ha measured after 14 days; format: organism-based; settings: in vivo, 336 h
[3] = test system: Schoenoplectiella juncoides; assay: Pre-emergence herbicidal activity against Schoenoplectiella juncoides at 100 g a.i/ha measured after 14 days; format: functional, organism-based
Pontederia vaginalis [4] = assay: Pre-emergence herbicidal activity against Monochoria vaginalis at 100 g a.i/ha measured after 14 days; format: functional, organism-based
Ammannia multiflora [5] = assay: Pre-emergence herbicidal activity against Ammannia multiflora at 100 g a.i/ha measured after 14 days; format: functional, organism-based
Rotala indica [6] = assay: Pre-emergence herbicidal activity against Rotala indica at 100 g a.i/ha measured after 14 days; format: functional, organism-based
Elatine triandra [7] = assay: Pre-emergence herbicidal activity against Elatine triandra at 100 g a.i/ha measured after 14 days; format: functional, organism-based
Lindernia procumbens [8] = assay: Pre-emergence herbicidal activity against Lindernia procumbens at 100 g a.i/ha measured after 14 days; format: functional, organism-based
Cyperus difformis [9] = assay: Pre-emergence herbicidal activity against Cyperus difformis at 100 g a.i/ha measured after 14 days; format: functional, organism-based
Echinochloa oryzicola [10] = assay: Pre-emergence herbicidal activity against Echinochloa oryzicola at 100 g a.i/ha measured after 14 days; format: functional, organism-based
Oryza sativa [11] = assay: Phytotoxicity against Oryza sativa cv. Koshihikari (rice) at 500 g a.i/ha measured after 14 days; format: organism-based; settings: in vivo, 336 h
Eleocharis acicularis [12] = assay: Pre-emergence herbicidal activity against Eleocharis acicularis at 500 g a.i/ha measured after 14 days; format: functional, organism-based
Pontederia vaginalis [13] = assay: Pre-emergence herbicidal activity against Monochoria vaginalis at 500 g a.i/ha measured after 14 days; format: functional, organism-based
[14] = test system: Schoenoplectiella juncoides; assay: Pre-emergence herbicidal activity against Schoenoplectiella juncoides at 500 g a.i/ha measured after 14 days; format: functional, organism-based
Ammannia multiflora [15] = assay: Pre-emergence herbicidal activity against Ammannia multiflora at 500 g a.i/ha measured after 14 days; format: functional, organism-based
Elatine triandra [16] = assay: Pre-emergence herbicidal activity against Elatine triandra at 500 g a.i/ha measured after 14 days; format: functional, organism-based
Rotala indica [17] = assay: Pre-emergence herbicidal activity against Rotala indica at 500 g a.i/ha measured after 14 days; format: functional, organism-based
Lindernia procumbens [18] = assay: Pre-emergence herbicidal activity against Lindernia procumbens at 500 g a.i/ha measured after 14 days; format: functional, organism-based
Echinochloa oryzicola [19] = assay: Pre-emergence herbicidal activity against Echinochloa oryzicola at 500 g a.i/ha measured after 14 days; format: functional, organism-based
Cyperus difformis [20] = assay: Pre-emergence herbicidal activity against Cyperus difformis at 500 g a.i/ha measured after 14 days; format: functional, organism-based
Eleocharis acicularis [21] = assay: Post-emergence herbicidal activity against Eleocharis acicularis assessed as bleaching of stem/leaf parts; format: functional, organism-based; note: test concentration or dose not given here
Eleocharis acicularis [22] = assay: Pre-emergence herbicidal activity against Eleocharis acicularis assessed as bleaching of stem/leaf parts; format: functional, organism-based
Ammannia multiflora [23] = assay: Pre-emergence herbicidal activity against Ammannia multiflora assessed as bleaching of stem/leaf parts; format: functional, organism-based
Rotala indica [24] = assay: Pre-emergence herbicidal activity against Rotala indica assessed as bleaching of stem/leaf parts; format: functional, organism-based
Elatine triandra [25] = assay: Pre-emergence herbicidal activity against Elatine triandra assessed as bleaching of stem/leaf parts; format: functional, organism-based
Lindernia procumbens [26] = assay: Pre-emergence herbicidal activity against Lindernia procumbens assessed as bleaching of stem/leaf parts; format: functional, organism-based
[27] = test system: Schoenoplectiella juncoides; assay: Pre-emergence herbicidal activity against Schoenoplectiella juncoides assessed as bleaching of stem/leaf parts; format: functional, organism-based
Pontederia vaginalis [28] = assay: Pre-emergence herbicidal activity against Monochoria vaginalis assessed as bleaching of stem/leaf parts; format: functional, organism-based
Cyperus difformis [29] = assay: Pre-emergence herbicidal activity against Cyperus difformis assessed as bleaching of stem/leaf parts; format: functional, organism-based
Echinochloa oryzicola [30] = assay: Pre-emergence herbicidal activity against Echinochloa oryzicola assessed as bleaching of stem/leaf parts; format: functional, organism-based
Ammannia multiflora [31] = assay: Post-emergence herbicidal activity against Ammannia multiflora assessed as bleaching of stem/leaf parts; format: functional, organism-based; note: test concentration or dose not given here
Elatine triandra [32] = assay: Post-emergence herbicidal activity against Elatine triandra assessed as bleaching of stem/leaf parts; format: functional, organism-based; note: test concentration or dose not given here
Rotala indica [33] = assay: Post-emergence herbicidal activity against Rotala indica assessed as bleaching of stem/leaf parts; format: functional, organism-based; note: test concentration or dose not given here
[34] = test system: Schoenoplectiella juncoides; assay: Post-emergence herbicidal activity against Schoenoplectiella juncoides assessed as bleaching of stem/leaf parts; format: functional, organism-based; note: test concentration or dose not given here
Lindernia procumbens [35] = assay: Post-emergence herbicidal activity against Lindernia procumbens assessed as bleaching of stem/leaf parts; format: functional, organism-based; note: test concentration or dose not given here
Pontederia vaginalis [36] = assay: Post-emergence herbicidal activity against Monochoria vaginalis assessed as bleaching of stem/leaf parts; format: functional, organism-based; note: test concentration or dose not given here
Cyperus difformis [37] = assay: Post-emergence herbicidal activity against Cyperus difformis assessed as bleaching of stem/leaf parts; format: functional, organism-based; note: test concentration or dose not given here
Echinochloa oryzicola [38] = assay: Post-emergence herbicidal activity against Echinochloa oryzicola assessed as bleaching of stem/leaf parts; format: functional, organism-based; note: test concentration or dose not given here

| SMILES | Activity (Eleocharis acicularis [1]) | Activity (Oryza sativa [2]) | Activity [3] | Activity (Pontederia vaginalis [4]) | Activity (Ammannia multiflora [5]) | Activity (Rotala indica [6]) | Activity (Elatine triandra [7]) | Activity (Lindernia procumbens [8]) | Activity (Cyperus difformis [9]) | Activity (Echinochloa oryzicola [10]) | Activity (Oryza sativa [11]) | Activity (Eleocharis acicularis [12]) | Activity (Pontederia vaginalis [13]) | Activity [14] | Activity (Ammannia multiflora [15]) | Activity (Elatine triandra [16]) | Activity (Rotala indica [17]) | Activity (Lindernia procumbens [18]) | Activity (Echinochloa oryzicola [19]) | Activity (Cyperus difformis [20]) | further results |
| --- | --- | --- | --- | --- | --- | --- | --- | --- | --- | --- | --- | --- | --- | --- | --- | --- | --- | --- | --- | --- | --- |
| Cn1cc(C(=O)NOc2cccc(Cl)c2)c(OCc2cccc(C(F)(F)F)c2)n1 | Active | Non-toxic | Active | Active | Active | Active | Active | Active | Active | Active | Non-toxic | Active | Active | Active | Active | Active | Active | Active | Active | Active | Activity (Eleocharis acicularis [21]): Active; Activity (Eleocharis acicularis [22]): Active; Activity (Ammannia multiflora [23]): Active; Activity (Rotala indica [24]): Active; Activity (Elatine triandra [25]): Active; Activity (Lindernia procumbens [26]): Active; Activity [27]: Active; Activity (Pontederia vaginalis [28]): Active; Activity (Cyperus difformis [29]): Active; Activity (Echinochloa oryzicola [30]): Active; Activity (Ammannia multiflora [31]): Active; Activity (Elatine triandra [32]): Active; Activity (Rotala indica [33]): Active; Activity [34]: Active; Activity (Lindernia procumbens [35]): Active; Activity (Pontederia vaginalis [36]): Active; Activity (Cyperus difformis [37]): Active; Activity (Echinochloa oryzicola [38]): Active |
| Cn1cc(C(=O)NOc2ccc(F)cc2F)c(OCc2cccc(C(F)(F)F)c2)n1 | Active | Non-toxic | inactive | Active | Active | Active | Active | Active | Active | inactive | Non-toxic | Active | Active | Active | Active | Active | Active | Active | Active | Active | Activity (Eleocharis acicularis [21]): Active; Activity (Eleocharis acicularis [22]): Active; Activity (Ammannia multiflora [23]): Active; Activity (Rotala indica [24]): Active; Activity (Elatine triandra [25]): Active; Activity (Lindernia procumbens [26]): Active; Activity [27]: Active; Activity (Pontederia vaginalis [28]): Active; Activity (Cyperus difformis [29]): Active; Activity (Echinochloa oryzicola [30]): Active; Activity (Ammannia multiflora [31]): Active; Activity (Elatine triandra [32]): Active; Activity (Rotala indica [33]): Active; Activity [34]: Active; Activity (Lindernia procumbens [35]): Active; Activity (Pontederia vaginalis [36]): Active; Activity (Cyperus difformis [37]): Active; Activity (Echinochloa oryzicola [38]): Active |
